We go through eight molecules from patent publication US20230203098A1, “HUMAN TRANSFERRIN RECEPTOR BINDING PEPTIDE” (priority 2020, published 2023).

Series [1] has as its system Human breast cancer cells BT-549. The series is described as follows: Migration of 5-FAM peptide conjugates into human breast cancer cells BT-549 (fluorescence microscopy). It is filed as cell-based. The settings on record: BT-549 cells, sample diluted to 100 nmol/L, 37° C., 3 hours. How it is done: Culturing was performed under conditions of 37° C. and 5% CO2.
Collagen Type I (Corning) was diluted to 50 µg/mL with 20 mmol/L acetic acid. A sterilized cover glass was placed in each well of the 24-well plate. After the diluted Collagen Type I solution was added to the plate, the plate was incubated at 37° C. for 1 hour. The Collagen Type I solution was removed from the plate and the plate was washed 3 times with PBS. The human breast cancer cells BT-549 were inoculated in an amount of 1 × 10^5 cells per 1 well and cultured overnight under conditions of 37° C. and 5% CO2.
The sample was diluted with the dilution medium to 100 nmol/L.
The sample solution was removed from the 24-well plate, and the BT-549 cells were washed three times with PBS. 4% paraformaldehyde phosphate buffer (FUJIFILM Wako Pure Chemical Corporation) was added at 500 µL/well, and the cells were allowed to stand at room temperature for 15 minutes and then washed three times with PBS. Further, Hoechst 33342 (Thermo Fisher Scientific) diluted with PBS to 2 µg/mL was added at 500 µL/well, and the cells were allowed to stand at room temperature under shading for 10 minutes and then washed three times with PBS. The cover glass was removed from the 24-well plate, and the cells were enclosed on a slide glass using fluorescent mounting medium (Agilent Technologies) and allowed to stand at room temperature under shading overnight. For the observation, an inverted fluorescence microscope DMI6000B (Leica Microsystems) was used, and the observation was performed at the wavelength for detecting FITC and DAPI. The scale bar in the figures indicates 50 µm.

In series [2] the target is transferrin receptor (hTfR) (Homo sapiens, UniProt P02786). The series can be described thus: Intermolecular interaction evaluation test between transferrin receptor (hTfR) and peptide by surface plasmon resonance (SPR). It is filed as binding. The gist of the method: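 hTfR captured on Ni-NTA chip then amine-coupled; peptides run single-cycle kinetics at 5–100 nM in 10 mM HEPES pH 8.0, 150 mM NaCl, 0.05% Tween 20, 0.1% BSA, 1.0% DMSO. KD from least-squares curve fitting of sensorgrams.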

A further series has as its system TfR-KI mice. The settings on record: mouse, in vivo. How it is done:
hTfRNo.894-vivotag750 conjugate administration liquid (No. 894 administration liquid) : 4.8 µL of dimethyl sulfoxide (DMSO, Sigma Aldrich) was added to 6 µL of a 5 mM solution of the hTfRNo.894-vivotag750 conjugate synthesized in Example 2, 66 µL of the 20% hydroxypropyl-β-cyclodextrin solution was further added, and the mixture was mixed well. To this, 48 µL of polyethylene glycol 400 was further added and mixed to prepare a No. 894-administration liquid. […] The offspring (chimeric mice) thus obtained were determined by hair color, and individuals in which the ES cells contributed to the development of the organism at a higher rate, that is, individuals having a higher proportion of white hairs relative to their total body hairs, were selected. […] White-colored F1 mice were selected, DNA was extracted from their tail tissues and analyzed, and the mice in which the mouse transferrin receptor gene on the chromosome had been heterologously replaced with the chimeric hTfR were selected as the TfR-KI mice. […] After this, tissues for measuring fluorescence intensity (brain, heart, lung, liver, spleen, kidney, quadriceps femoris muscle, thymus, thoracic vertebrae, and femur) were collected and stored in normal saline to prevent drying. […]

Read-outs that look alike come from different tables or passages of the source. *1 amine or outer side, *2 acyl side, *3 side chain or, on linkers, in order; H or OH if unused. Where a SMILES comes first, the peptide text is derived from it. Bridges are numbered along the chain shown (N, C = ends). Where no end group is shown, it is not given here. [ ]: non-standard residue; d: D form. The star is where a group is joined. ξ: configuration not given here. X6 = CC(C)[C@H](CC(=O)[C@H](Cc1ccccc1)N(C)[*:1])C(=O)[*:2]; X2 = O=C(O)c1cc(C(=O)*)ccc1-c1c2ccc(=O)cc-2oc2cc(O)ccc12; Tyr(Me) = COc1ccc(C[C@H](N[*:1])C(=O)[*:2])cc1; NMePhe(3-Cl) = CN[C@@H](Cc1cccc(Cl)c1)C(=O)O; NMeW = CN[C@@H](Cc1c[nH]c2ccccc12)C(=O)O; NMeY = CN[C@@H](Cc1ccc(O)cc1)C(=O)O; PEG4 = NCCOCCOCCOCCOCCC(=O)O; Aib = CC(C)(N)C(=O)O; ξC = NC(CS)C(=O)O Where only a bound is given, the exact number is not on record here.

Chain of transferrin receptor (hTfR) (P02786 whole entry): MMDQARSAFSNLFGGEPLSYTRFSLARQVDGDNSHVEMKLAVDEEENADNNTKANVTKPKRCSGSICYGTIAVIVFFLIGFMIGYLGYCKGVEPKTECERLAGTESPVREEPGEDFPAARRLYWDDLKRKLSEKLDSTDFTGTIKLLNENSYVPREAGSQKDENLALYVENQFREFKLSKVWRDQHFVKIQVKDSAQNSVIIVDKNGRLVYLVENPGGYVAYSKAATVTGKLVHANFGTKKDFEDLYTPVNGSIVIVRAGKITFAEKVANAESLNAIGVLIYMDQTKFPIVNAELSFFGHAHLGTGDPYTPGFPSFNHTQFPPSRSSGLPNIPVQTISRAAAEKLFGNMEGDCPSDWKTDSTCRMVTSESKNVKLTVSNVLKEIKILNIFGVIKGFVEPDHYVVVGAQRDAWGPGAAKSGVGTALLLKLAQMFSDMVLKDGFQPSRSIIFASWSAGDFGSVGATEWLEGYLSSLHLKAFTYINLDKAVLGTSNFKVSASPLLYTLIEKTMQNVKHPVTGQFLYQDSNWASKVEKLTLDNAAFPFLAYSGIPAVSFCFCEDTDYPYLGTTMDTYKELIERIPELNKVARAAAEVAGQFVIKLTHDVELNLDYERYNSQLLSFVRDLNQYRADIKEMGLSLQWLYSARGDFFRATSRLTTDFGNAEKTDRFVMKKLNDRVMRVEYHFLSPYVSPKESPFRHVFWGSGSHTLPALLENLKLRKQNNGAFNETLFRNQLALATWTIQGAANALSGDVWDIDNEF

Turning to `CC[C@H](C)[C@@H]1NC(=O)[C@H](Cc2ccc(O)cc2)NC(=O)[C@H](Cc2ccc(O)cc2)NC(=O)[C@H](CC(N)=O)NC(=O)[C@H](Cc2c[nH]c3ccccc23)NC(=O)[C@H](C(C)C)CC(=O)[C@H](Cc2ccccc2)N(C)C(=O)[C@H](C(C)C)NC(=O)[C@H](C)NC(=O)CSCC(C(=O)NCCOCCOCCOCCOCCC(=O)N[C@H](CCCCNC(=O)c2ccc(-c3c4ccc(=O)cc-4oc4cc(O)ccc34)c(C(=O)O)c2)C(N)=O)NC(=O)[C@H](Cc2ccc(O)cc2)N(C)C(=O)[C@H](Cc2ccc(O)cc2)NC(=O)[C@H](CCCNC(=N)N)NC(=O)[C@H](CCCNC(=N)N)NC(=O)[C@H]([C@@H](C)CC)NC1=O` (stereo partly shown) [Patent ID 446] ({CH2CO}-AV[X6]WNYYIIRRY[NMeY][ξC][PEG4][dK](X2)-NH2; thioether N-14), the “migration into the cells” value in series [1] is “into the cells was confirmed”.

For “Patent ID 449: negative control, 5-FAM labelled conjugate of Flip894_variant61_PEG4, a peptide without binding ability to hTfR ({CH2CO}-A[NMeY]F[dR][Aib]IY[Tyr(Me)]YN[NMeW]V[NMePhe(3-Cl)]VC; thioether N-15; not fully specified (C-terminus); also: methylation at Y2 and W11, type not given here) [reference compound]”, the hTfR binding ability result in series [2] (SPR, result in words) is recorded as “no binding to hTfR was observed”. Further, the “migration into the cells” value in series [1] was “did not migrate into the cells”.

On to “Patent ID 447: 5-FAM labelled conjugate of hTfR_894_variant61_PEG4 (AVXVWNYXIIXXFYC; not fully specified; PEG4 linker, 5-FAM label; (3)..(3) Xaa is MeF3C; MOD_RES (5)..(5) …ON; (8)..(8) Xaa is F4OMe; (11)..(11) Xaa is Aib; (12)..(12) Xaa is dr; MOD_RES (14)..(14) …ON)”, for which, in series [1], the “migration into the cells” value was “into the cells was confirmed”.

As to “Patent ID 448: 5-FAM labelled conjugate of hTfR_894_variant03_PEG4 (AVXVWNYXIIRXFYC; not fully specified; PEG4 linker, 5-FAM label; (3)..(3) Xaa is MeF3C; MOD_RES (5)..(5) …ON; (8)..(8) Xaa is F4OMe; (12)..(12) Xaa is dr; MOD_RES (14)..(14) …ON)”, the “migration into the cells” value in series [1] is listed as “into the cells was confirmed”.

Turning to `CC[C@H](C)[C@@H]1NC(=O)[C@H](Cc2ccc(O)cc2)NC(=O)[C@H](Cc2ccc(O)cc2)NC(=O)[C@H](CC(N)=O)NC(=O)[C@H](Cc2c[nH]c3ccccc23)NC(=O)[C@H](C(C)C)NC(=O)[C@H](Cc2ccccc2)NC(=O)[C@H](C(C)C)NC(=O)[C@H](C)NC(=O)CSC[C@@H](C(N)=O)NC(=O)[C@H](Cc2ccc(O)cc2)N(C)C(=O)[C@H](Cc2ccc(O)cc2)NC(=O)[C@H](CCCNC(=N)N)NC(=O)[C@H](CCCNC(=N)N)NC(=O)[C@H]([C@@H](C)CC)NC1=O` [hTfR No. 894], in the series with TfR-KI mice, the “migration into the brain through the BBB” value is on record as “migrated into the brain through the BBB” and the migration to tissues entry was “also migrated to each tissue, mainly muscle tissues”.

As to `CC[C@H](C)[C@@H]1NC(=O)[C@H](Cc2ccc(OC)cc2)NC(=O)[C@H](Cc2ccc(O)cc2)NC(=O)[C@H](CC(N)=O)NC(=O)[C@H](Cc2c[nH]c3ccccc23)N(C)C(=O)[C@H](C(C)C)NC(=O)[C@H](Cc2cccc(Cl)c2)N(C)C(=O)[C@H](C(C)C)NC(=O)[C@H](C)NC(=O)CSC[C@@H](C(N)=O)NC(=O)[C@H](Cc2ccc(O)cc2)N(C)C(=O)[C@H](Cc2ccccc2)NC(=O)[C@H](CCC(=O)NCCOCCOCCOCCOCCOCCOCCOCCOC)NC(=O)[C@H](CCCNC(=N)N)NC(=O)[C@H]([C@@H](C)CC)NC1=O` [compound 384], in series [2] (surface plasmon resonance, hTfR, read-out: KD value for hTfR by SPR (class symbol)), the dissociation constant (Kd) is less than 1 nM.

Consider `CC[C@H](C)[C@@H]1NC(=O)[C@H](Cc2ccc(OCCN)cc2)NC(=O)[C@H](Cc2ccc(O)cc2)NC(=O)[C@H](CC(N)=O)NC(=O)[C@H](Cc2c[nH]c3ccccc23)NC(=O)[C@H](C(C)C)NC(=O)[C@H](Cc2ccccc2)N(C)C(=O)[C@H](C(C)C)NC(=O)[C@H](C)NC(=O)CSC[C@@H](C(N)=O)NC(=O)[C@H](Cc2ccc(O)cc2)N(C)C(=O)[C@H](Cc2ccccc2)NC(=O)[C@H](CCCNC(=N)N)NC(=O)[C@H](CCCCN)NC(=O)[C@H]([C@@H](C)CC)NC1=O` [compound 521], for which the Kd in series [2] (SPR, hTfR, class symbols A-D, read-out: KD (column without head, continuation of the table series)) was 1 to 100 nM.

For `CC[C@H](C)[C@@H]1NC(=O)[C@H](Cc2ccc(O)cc2)NC(=O)[C@H](Cc2ccc(O)cc2)NC(=O)[C@H](CC(N)=O)NC(=O)[C@H](Cc2c[nH]c3ccccc23)N(C)C(=O)[C@H](C(C)C)NC(=O)[C@H](Cc2cc(Cl)cc(Cl)c2)N(C)C(=O)[C@H](C(C)C)NC(=O)[C@H](C)NC(=O)CSC[C@@H](C(N)=O)NC(=O)[C@H](Cc2ccc(O)cc2)N(C)C(=O)[C@H](Cc2ccccc2)NC(=O)[C@@H](CCCNC(=N)N)NC(=O)[C@H](CCCNC(=N)N)NC(=O)[C@H]([C@@H](C)CC)NC1=O` [compound 302], the Kd in series [2] (surface plasmon resonance, peptide vs hTfR, read-out: KD value, hTfR binding by SPR (class symbol)) is 1 to 100 nM.
